“Also recorded” adds a separate entry of the source.
Legend:
HeLa cells [1] = experiment: Cell migration assay of HeLa cells on lipid multilayer films made by evaporative edge lithography; assay type: cell-based; settings: for migration rate of HeLa cells versus lipid thickness: lipid only; for migration rate of HeLa cells versus lipid thickness / collective cell migration compared to control group: 24 hours; for HeLa cell migration (qualitative effect): drug delivered from encapsulated lipid films; for collective cell migration compared to control group: lipid encapsulated film
Method: Polydimethylsiloxane (PDMS) was cured from the SYLGARD® 184 silicone elastorner kit in a 60° C. oven overnight. PDMS strips of 15 mm long by 1 mm wide were placed between 500-800 μm apart on prepared glass coverslips before addition of lipid mixtures. 1,2-dioleoyl-3-trimethylammonium-propane (chloride salt) (DOTAP) and 1,2-dioleoyl-sn-glycerol-3-phosphoethanolamine-N-(lissamine rhodamine b sulfonyl) (ammonium salt) (DOPE-rhodamine) were purchased from Avanti Polar Lipids. To create lipid only solutions, DOTAP was mixed with 1 molar percent (mol %) DOPE-rhodamine in chloroform and dried overnight in a vacuum pump desiccators at 16 LM 15 Torr 7.4 PSIG to remove solvent. Ethanol (100%) was added to suspend dried lipid powder and 1 μl was deposited in each PDMS channel and the array was dried overnight in a vacuum to remove residual ethanol. A similar procedure was used for docetaxel encapsulated lipid solutions and the drug was dissolved in ethanol prior to adding to the dried lipid powder.
The prepared assays on glass coverslips were placed individually wells of a 6-well plate for cell culture. For experiments, cells were seeded onto the prepared patterned glass coverslips by gently pipetting the cell suspension (2.5×10^5 cells/ml, 1 ml per coverslip) directly over each PDMS channel to allow cells to settle in them. The same method was used to seed other parts of the slide for use as control areas. Cells were allowed to settle for 1-2 hours before the PDMS barriers were removed to promote cell migration. After barrier removal, the coverslips were washed once with HBSS and replaced with fresh growth media. The cells were incubated over the patterned areas for up to 24 hours. Width of each cell strip was measure by hand with Nikon Elements 4.0 analysis software and the average migration rate for each strip was determined with the following equation: Migration Rate (μm/hr)=(WidthT=24 hrs−WidthT=0 hrs/24hrs.
Width is the average width in micrometers (μm) of the cell monolayer measured either at the beginning of the experiment (T=0 hrs) or at the end (T=24 hours).
The images for cell migration were captured on a Nikon Ti Eclipse inverted microscope with 4× or 10× objectives. Images for cell migration were taken after barrier removal and once again 24 hours after incubation period in phase contrast. Fluorescent filters used were B-2E/C and G-2E/C for red and green emitting dyes.
(§1) A student t-test was performed to determine statistical significance between means of each sample (p-value <0.05). Error bars in figures are standard error of the mean for n samples. Characterizing the edge lipid films produced a total of n=20 samples and middle lipid film measurements produced n=10 samples. Cell density experiments were performed in triplicates (n=3). All samples for cell migration were taken in triplicate and replicated three times (n=9).

HeLa cells [2] = experiment: Cell adhesion experiments on lipid films of different multilayer thickness; assay type: cell-based
Method: Lipids were dissolved in ethanol and added to each channel in increasing amounts from 0.2 ng to 20 μg. Tests for cell attachment were performed by seeding HeLa cells into assay channel with varying amounts of lipid films. Cells were allowed to attach for two hours before washing the channels repeatedly 5 times. Prior to counting, cells were incubated with live-cell fluorescent dye (SYTO9, Invitrogen). The number of cells per square micron area (μm^2) that remained attached was counted manually. Experiments for cell adhesion where performed in three replicates. Values for cell density of each treatment were determined by averaging the number of cells in 5 random 100 μm^2 areas in a single image captured at a 4× magnification.
as §1

[3] = cited from earlier work
[4] = cited from earlier work; remark: listed apart in the source

Row | SMILES | migration rate of HeLa cells versus lipid thickness (HeLa cells [1]; channels from lipid solutions of 20 μg/ml or lower) | migration rate of HeLa cells versus lipid thickness (HeLa cells [1]; lipid solutions above 20 μg/ml) | HeLa cell adhesion to lipid films compared to untreated glass (HeLa cells [2]; concentrations higher than 20 μg/ml, 2 hours of incubation) | HeLa cell adhesion to lipid films (HeLa cells [2]; films created from 20 ng (initial solution 20 μg/ml) or lower, 2 hours of incubation) | HeLa cell morphology and viability on lipid multilayers (HeLa cells [2]; lipid multilayers created from 200 ng of lipids or more, compared to thinner multilayers) | log P [3] | HeLa cell migration (qualitative effect) (HeLa cells [1]) | migration rate of the cells, dose dependence (HeLa cells [1]; delivered by encapsulated lipid films, over 24 hours) | collective cell migration compared to control group (HeLa cells [1]; docetaxel to lipid ratio (by mass) 1:2) | collective cell migration compared to control group (HeLa cells [1]; docetaxel to lipid ratio (by mass) 1:4) | collective cell migration compared to control group (HeLa cells [1]; docetaxel to lipid ratio (by mass) 1:10) | solubility in water [4]
1 | CCCCCCCC/C=C\CCCCCCCC(=O)OCC(C[N+](C)(C)C)OC(=O)CCCCCCC/C=C\CCCCCCCC.[Cl-] (stereo not shown) [DOTAP, 1,2-dioleoyl-3-trimethylammonium-propane (chloride salt)] | not significantly (p<0.05) affected | significantly hindered | adhere significantly less (p<0.05) | adherent | exhibited abnormal morphology and appeared dead | – | – | – | – | – | – | –
2 | C[C@H]1CCC/C=C/[C@@H]2C[C@H](O)C[C@H]2[C@H](O)/C=C/C(=O)O1 [brefeldin A] | – | – | – | – | – | 1.61 | inhibited | – | – | – | – | –
3 | CC(=O)O[C@@]12CO[C@@H]1C[C@H](O)[C@@]1(C)C(=O)[C@H](O)C3=C(C)[C@@H](OC(=O)[C@H](O)[C@@H](NC(=O)OC(C)(C)C)c4ccccc4)C[C@@](O)([C@@H](OC(=O)c4ccccc4)[C@H]21)C3(C)C [docetaxel] | – | – | – | – | – | – | significantly inhibit cellular migration; also recorded: inhibited | reduced the migration rate of the cells dose-dependently | significantly (p<0.05) reduce collective cell migration | significantly (p<0.05) reduce collective cell migration | significantly (p<0.05) reduce collective cell migration | less than 0.025 mg/L

Source: patent US9995732B2, “Evaporative edge lithography of a liposomal drug microarray for cell migration assays” (FLORIDA STATE UNIVERSITY RESEARCH FOUNDATION, priority 2012, dated 2018)
